Assay results as given in paper PMC12005349 (Journal of Cellular and Molecular Medicine, 2025).
No end group written: not given here.

Tests used:
TGFβRI = system: TGFβRI; parameters: method as in 2 sources, ref 51 = [51]; 51 SB431542 | Activin/BMP/TGF‐Beta Pathway Inhibitor | […] Technologies [Internet] , https://www.stemcell.com/products/sb431542.html . ||| ref 52 = [52]; 52 selleckchem.com [Internet] , “SD‐208 | 99.67%(HPLC) | TGF‐Beta/Smad Inhibitor” , https://www.selleckchem.com/products/sd‐208.html .; conditions: cited from earlier work
HEK293T cells = assay: Cytotoxicity by flow cytometry (FITC Annexin V / propidium iodide) on HEK293T cells; assay type: cell-based, human; conditions: for Viability (%): 20 µM
Description: HEK293T cells were seeded in 12‐well plates coated with poly‐d‐lysine (PDL) in a DMEM 10% FBS medium. After 24 h of incubation, the culture medium was removed and the cells were washed three times with PBS. Next, either empty fresh culture medium, medium with the addition of a commercial small molecule (SD‐208 or SB‐525334), or one of the novel peptides TGF‐β inhibitors was added. After 24 h of incubation, cells were removed from the wells and counted using a haemocytometer. Cells were prepared for flow cytometry using the Pharmingen FITC Annexin V Apoptosis Detection Kit I (BD Biosciences, cat. no 556547). 100,000 cells from each sample were suspended in a binding buffer and then stained with FITC and/or propidium iodide. After a 15‐min incubation, the fluorescence profiles of each cell population were measured using a flow cytometer (CytoFLEX, Beckman Coulter), identifying the proportion of cells in apoptosis and necrosis. The data were visualised and quantified by constructing a dot plot using the CytExpert (Beckman Coulter) software.

[1] = target: T1, TGFβRI/TGFβRII receptor complex (Homo sapiens, UniProt P36897+P37173); assay: Dual-Luciferase reporter (CAGA12-Luc/TK Renilla) luminescence assay of TGF-β signalling on HEK293T cells; assay type: cell-based; conditions: PI 500 nM to 50 μM, 60 min, then TGF-β 6 h, 4-parameter logistic regression, 4 biological replicates
T1 construct: host or cells: HEK293T CAGA12-Luc/TK Renilla reporter cells
T1 sequence (P36897 34-503): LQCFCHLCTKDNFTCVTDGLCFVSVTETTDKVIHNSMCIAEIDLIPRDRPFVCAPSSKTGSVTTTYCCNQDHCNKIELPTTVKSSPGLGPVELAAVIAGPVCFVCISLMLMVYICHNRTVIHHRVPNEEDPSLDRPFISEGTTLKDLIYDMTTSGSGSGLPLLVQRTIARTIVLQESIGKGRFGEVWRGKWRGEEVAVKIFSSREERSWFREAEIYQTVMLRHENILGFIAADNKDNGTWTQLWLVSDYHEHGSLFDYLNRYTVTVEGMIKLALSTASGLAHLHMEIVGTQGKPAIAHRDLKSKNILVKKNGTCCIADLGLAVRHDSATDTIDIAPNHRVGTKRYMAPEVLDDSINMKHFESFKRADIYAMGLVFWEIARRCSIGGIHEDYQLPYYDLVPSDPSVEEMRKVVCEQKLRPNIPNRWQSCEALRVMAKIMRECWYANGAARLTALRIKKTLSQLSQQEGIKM
T1 sequence (P37173 23-567): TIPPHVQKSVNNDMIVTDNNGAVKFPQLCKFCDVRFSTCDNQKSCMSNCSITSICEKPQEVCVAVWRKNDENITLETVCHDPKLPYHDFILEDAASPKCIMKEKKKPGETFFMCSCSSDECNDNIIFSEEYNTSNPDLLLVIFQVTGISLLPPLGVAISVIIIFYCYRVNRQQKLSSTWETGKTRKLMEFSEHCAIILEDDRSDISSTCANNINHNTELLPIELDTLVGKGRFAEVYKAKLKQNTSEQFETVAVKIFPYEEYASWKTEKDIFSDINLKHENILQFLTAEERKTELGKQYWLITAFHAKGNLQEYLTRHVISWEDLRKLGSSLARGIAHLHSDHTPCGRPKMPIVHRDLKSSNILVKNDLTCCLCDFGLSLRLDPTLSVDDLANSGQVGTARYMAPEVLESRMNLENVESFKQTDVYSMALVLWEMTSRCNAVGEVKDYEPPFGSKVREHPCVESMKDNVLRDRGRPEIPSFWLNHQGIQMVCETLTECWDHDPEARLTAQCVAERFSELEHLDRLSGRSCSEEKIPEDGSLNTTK
Source text: The cell line stably expresses CAGA12‐Luc, a Smad3/Smad4‐dependent reporter containing 12 copies of CAGAC motifs derived from the PAI‐1 promoter. This reporter protein is expressed and secreted by HEK293T cells upon TGFβRI/TGFβRII activation. The cell line also contains a Renilla reporter driven by a thymidine kinase (TK) promoter that acts as an internal control.
The presence of the described reporter activity allows HEK293T cells to be used to measure TGF‐β signalling activity using luciferase assays. The Promega Dual‐Luciferase Reporter Assay System (Promega, cat. no E1910) kit was used for assays on the HEK293T cell line. The following procedure was carried out according to manufacturer protocols. Cells were seeded in 96‐well plates coated with poly‐d‐lysine (PDL), in a DMEM 10% FBS medium. All experiments were carried out with the use of 4 biological replicates per group. After 24 h of incubation, the culture medium was removed and the cells were washed three times with PBS. […] After incubation, an additional volume of fresh blank medium or medium supplemented with TGF‐β was added to the wells. The cells were incubated again for 6 h, after which the contents of the wells were removed and the wells rinsed again with PBS. The cells were stored at −80°C until measurement.
Prior to measurement, cells were lysed using a passive lysis buffer. The lysate from each well was added to corresponding wells on a new 96‐well plate containing a reagent that induces luminescence of the first reporter protein, which is expressed by the HEK293T cells upon TGF‐β receptor activation. Luminescence was read using a plate reader with a luminescence measurement function (Victor EX, Perkin Elmer), following the kit manufacturer's instructions. After the measurement, a reagent that activates the second reporter protein (constitutively expressed by HEK293T cells, serves as an internal control) was added to each well, and the luminescence reading was repeated. All luciferase‐based assays were conducted using 4 biological replicates (cell cultures seeded and cultured independently) for each inhibitor and concentration tested.
IC50 values were calculated using 4‐parameter logistic regression in the Prism 9.0 (GraphPad) software. […] All measured results were considered significant at α level = 0.05. The α level is the threshold value against which p‐values are measured. p < 0.05 was considered to indicate a statistically significant difference.

Compound: NC(=O)c1ccc(-c2nc(-c3ccc4c(c3)OCO4)c(-c3ccccn3)[nH]2)cc1 [SB-431542]
- IC50 (TGFβRI): 0.094 µM

Compound: Cc1cccc(-c2[nH]c(C(C)(C)C)nc2-c2ccc3nccnc3c2)n1 [SB-525334, 6‐[2‐tert‐Butyl‐5‐(6‐methyl‐pyridin‐2‐yl)‐1H‐imidazol‐4‐yl]‐quinoxaline]
- Viability (%) (HEK293T cells): 86.9%

Compound: Fc1ccc(Cl)cc1-c1nc(Nc2ccncc2)c2nccnc2n1 [SD-208]
- Viability (%) (HEK293T cells): 87.1%

Compound: AAYCFRNVQ [1_4]
- IC50 [1]: 57.2 µM

Compound: ACPYLWSSD [2_4]
- IC50 [1]: 27.7 µM

Compound: AGACPYLWS [2_2]
- IC50 [1]: 29.3 µM

Compound: ALDAAYCFR [1_1]
- IC50 [1]: 43.3 µM
- Viability (%) (HEK293T cells): 88.7%

Compound: AYCFRNVQD [1_5]
- IC50 [1]: 24.2 µM

Compound: CPYLWSSDT [2_5]
- IC50 [1]: 21.9 µM

Compound: DAAYCFRNV [1_3]
- IC50 [1]: 42.4 µM

Compound: GACPYLWSS [2_3]
- IC50 [1]: 23.6 µM
- Viability (%) (HEK293T cells): 86.4%

Compound: LDAAYCFRN [1_2]
- IC50 [1]: 44 µM

Compound: LWSSDTQHS [2_8]
- IC50 [1]: 27.4 µM

Compound: PYLWSSDTQ [2_6]
- IC50 [1]: 25.7 µM

Compound: TSLDASIIWAMMQN [P144]
- Viability (%) (HEK293T cells): 82.2%
- Effect on HEK293T cell viability compared to untreated cells (HEK293T cells; 20 μM, 24 h, flow cytometry): none of the tested inhibitors reduced cell viability to a statistically significant degree

Compound: WSSDTQHSR [2_9]
- IC50 [1]: 25 µM

Compound: YLWSSDTQH [2_7]
- IC50 [1]: 20.8 µM
